Source: PubChem BioAssay AID1963870 (Molecular Pharmacology Branch, DTP, NCI, 2024)
“And” between values parts separate entries of the source, which are not always exact repeats. Equal values may be shown once.

Test system: 292921-168-R-J2-PDC KRAS tumor spheroid viability
Assay: Anticancer human tumor 292921-168-R-J2-PDC patient-derived pancreatic carcinoma cell line growth inhibition [KRAS2]
Conditions: spheroids with HUVEC and MSC; for viability, T/C: stronger effect = lower value
Summary of the method: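 KRAS-mutant tumor cells were grown as spheroids with HUVEC endothelial cells and human MSCs as stroma. Targeted agents were tested alone and with KRAS pathway inhibitors. Doses started at or near clinical Cmax, or 10 microM, descending half-log.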

[1] = curve of first compound, second compound 0.1 µM
[2] = curve of first compound, second compound 0.316 µM
[3] = curve of first compound, second compound 1 µM
[4] = curve of first compound, second compound 3.16 µM
[5] = second compound 0.1 µM, first compound 0.0316 µM
[6] = second compound 0.1 µM, first compound 0.1 µM
[7] = second compound 0.1 µM, first compound 0.316 µM
[8] = second compound 0.1 µM, first compound 1 µM
[9] = second compound 0.1 µM, first compound 3.16 µM
[10] = second compound 0.1 µM, first compound 10 µM
[11] = second compound 0.316 µM, first compound 0.0316 µM
[12] = second compound 0.316 µM, first compound 0.1 µM
[13] = second compound 0.316 µM, first compound 0.316 µM
[14] = second compound 0.316 µM, first compound 1 µM
[15] = second compound 0.316 µM, first compound 3.16 µM
[16] = second compound 0.316 µM, first compound 10 µM
[17] = second compound 1 µM, first compound 0.0316 µM
[18] = second compound 1 µM, first compound 0.1 µM
[19] = second compound 1 µM, first compound 0.316 µM
[20] = second compound 1 µM, first compound 1 µM
[21] = second compound 1 µM, first compound 3.16 µM
[22] = second compound 1 µM, first compound 10 µM
[23] = second compound 3.16 µM, first compound 0.0316 µM
[24] = second compound 3.16 µM, first compound 0.1 µM
[25] = second compound 3.16 µM, first compound 0.316 µM
[26] = second compound 3.16 µM, first compound 1 µM
[27] = second compound 3.16 µM, first compound 3.16 µM
[28] = second compound 3.16 µM, first compound 10 µM
[29] = curve of first compound, second compound 10 µM
[30] = second compound 10 µM, first compound 0.0316 µM
[31] = second compound 10 µM, first compound 0.1 µM
[32] = second compound 10 µM, first compound 0.316 µM
[33] = second compound 10 µM, first compound 1 µM
[34] = second compound 10 µM, first compound 3.16 µM
[35] = second compound 10 µM, first compound 10 µM
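Further: drug exposure lasted seven days after spheroids formed for three days.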
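Wherever viability, T/C is given: percent of DMSO vehicle control viability which is 100%.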

Compound	IC50 [1]	IC50 [2]	IC50 [3]	IC50 [4]	viability, T/C [5]	viability, T/C [6]	viability, T/C [7]	viability, T/C [8]	viability, T/C [9]	viability, T/C [11]	viability, T/C [12]	viability, T/C [13]	viability, T/C [14]	viability, T/C [15]	viability, T/C [17]	viability, T/C [18]	viability, T/C [19]	viability, T/C [20]	viability, T/C [21]	viability, T/C [23]	other results
COc1cc(Nc2ncc3c(n2)-c2ccc(Cl)cc2C(c2c(F)cccc2OC)=NC3)ccc1C(=O)O + C=CC(=O)N1CCN(c2nc(OCC3CCCN3C)nc3c2CCN(c2cccc4cccc(C)c24)C3)CC1CC#N	< 31.6 nM	< 31.6 nM	< 31.6 nM	< 31.6 nM	24.8%	25.7%	26.8%	27.2%	23.5%	18.8%	17.9%	23.5%	23.3%	21.1%	11.2%	10.8%	14.9%	15.4%	14.2%	0.22%	IC50 (curve of first compound, second compound 0.0316 µM): < 31.6 nM; viability, T/C (second compound 0.0316 µM, first compound 0.0316 µM): 28.8%; viability, T/C (second compound 0.0316 µM, first compound 0.1 µM): 25.6%; viability, T/C (second compound 0.0316 µM, first compound 0.316 µM): 28.7%; viability, T/C (second compound 0.0316 µM, first compound 1 µM): 29.4%; viability, T/C (second compound 0.0316 µM, first compound 3.16 µM): 26.1%; viability, T/C (second compound 0.0316 µM, first compound 10 µM): 17.1%; viability, T/C [10]: 15.9%; viability, T/C [16]: 14.4%; viability, T/C [22]: 10.3%; viability, T/C [24]: 0.2%; viability, T/C [25]: 0.13%; viability, T/C [26]: 1.99%; viability, T/C [27]: 0.44%; viability, T/C [28]: 0.41%
O=C(c1cc(Cc2n[nH]c(=O)c3ccccc23)ccc1F)N1CCN(C(=O)C2CC2)CC1 + CNCc1ccccc1-c1csc(C(C)Nc2nc(C)nc3cc(OC)c(OC)cc23)c1	6100 nM	5510 nM	4920 nM	< 31.6 nM	98%	109%	99.2%	87.6%	61.2%	88.7%	79%	76.8%	74%	62.3%	83.5%	68.3%	69.9%	70.1%	52.3%	0.14%	IC50 [29]: < 31.6 nM; viability, T/C [10]: 41.6%; viability, T/C [16]: 37.6%; viability, T/C [22]: 42.4%; viability, T/C [24]: 0.13%; viability, T/C [25]: 0.11%; viability, T/C [26]: 0.1%; viability, T/C [27]: 0.1%; viability, T/C [28]: 0.17%; viability, T/C [30]: 0.33%; viability, T/C [31]: 0.1%; viability, T/C [32]: 0.1%; viability, T/C [33]: 0.11%; viability, T/C [34]: 0.11%; viability, T/C [35]: 0.19%
CN(C)C/C=C/C(=O)Nc1cc2c(Nc3ccc(F)c(Cl)c3)ncnc2cc1O[C@H]1CCOC1	–	–	–	–	–	–	–	–	–	–	–	–	–	–	–	–	–	–	–	–	viability, T/C (compound 0.000316 µM): 101% [middle of 5 runs]; viability, T/C (compound 0.001 µM): 101% [middle of 5 runs]; viability, T/C (compound 0.00316 µM): 85.6% [middle of 5 runs]; viability, T/C (compound 0.01 µM): 82.7% [middle of 5 runs]; viability, T/C (compound 0.0316 µM): 75.9% [middle of 5 runs]; viability, T/C (compound 0.1 µM): 70.9% [middle of 5 runs]; IC50 (curve of compound): > 100 nM
CC(=O)OC12COC1CC(O)C1(C)C(=O)C(O)C3=C(C)C(OC(=O)C(O)C(NC(=O)OC(C)(C)C)c4ccccc4)CC(O)(C(OC(=O)c4ccccc4)C21)C3(C)C (centres undefined) + COc1cc2nc(C)nc(NC(C)c3cc(N)cc(C(F)(F)F)c3)c2cc1OC1CCOC1	< 10 nM	< 10 nM	< 10 nM	< 10 nM	15.2%	10.7%	12.1%	14%	19%	14.7%	10.9%	12.6%	14.7%	18.8%	16.2%	13.6%	10.9%	16.1%	18.9%	13.4%	IC50 [29]: < 10 nM; viability, T/C (second compound 0.1 µM, first compound 0.01 µM): 13.7%; viability, T/C (second compound 0.316 µM, first compound 0.01 µM): 13.7%; viability, T/C (second compound 1 µM, first compound 0.01 µM): 13.3%; viability, T/C (second compound 3.16 µM, first compound 0.01 µM): 12.1%; viability, T/C [24]: 11.2%; viability, T/C [25]: 11.4%; viability, T/C [26]: 14.1%; viability, T/C [27]: 18.7%; viability, T/C (second compound 10 µM, first compound 0.01 µM): 13.5%; viability, T/C [30]: 13.3%; viability, T/C [31]: 14%; viability, T/C [32]: 12.8%; viability, T/C [33]: 11.9%; viability, T/C [34]: 13.2%
CCNC(=O)CC1N=C(c2ccc(Cl)cc2)c2cc(OC)ccc2-n2c(C)nnc21 (centres undefined)	–	–	–	–	–	–	–	–	–	–	–	–	–	–	–	–	–	–	–	–	viability, T/C (compound 0.0316 µM): 97.6% and 105% (2×); viability, T/C (compound 0.1 µM): 101% and 90.5% and 99.3%; viability, T/C (compound 0.316 µM): 68.9% and 65.5% and 77.4%; viability, T/C (compound 1 µM): 61.3% and 61.7% and 65.3%; viability, T/C (compound 3.16 µM): 55.7% and 53.3% and 49.1%; viability, T/C (compound 10 µM): 47.1% and 38.7% and 48.1%; IC50 (curve of compound): > 10000 nM and 2930 nM and 4760 nM
Cn1nccc1Nc1nccc(-c2cc3c(s2)C(C)(C)N(CCN2CCOCC2)C3=O)n1 + COc1cc2nc(C)nc(NC(C)c3cc(N)cc(C(F)(F)F)c3)c2cc1OC1CCOC1	64.7 nM	54.7 nM	47.2 nM	32.6 nM	74.8%	34.9%	14.8%	11.1%	9.76%	66.2%	32.1%	16.4%	10.4%	8.74%	60.1%	31.6%	15.8%	10.9%	9.75%	50.7%	IC50 [29]: < 31.6 nM; viability, T/C [10]: 9.52%; viability, T/C [16]: 9.26%; viability, T/C [22]: 10.1%; viability, T/C [24]: 26.1%; viability, T/C [25]: 14.3%; viability, T/C [26]: 10.2%; viability, T/C [27]: 8.41%; viability, T/C [28]: 10.2%; viability, T/C [30]: 25.4%; viability, T/C [31]: 15.9%; viability, T/C [32]: 10.3%; viability, T/C [33]: 9.05%; viability, T/C [34]: 9.73%; viability, T/C [35]: 7.56%
